# Experiments:
# HO = molecular target: T1, HO (Rattus norvegicus, UniProt P06762); test: Blocking of HO activity by ZnPPIX, carboxyhemoglobin in peripheral blood of recipients; assay type: in vivo; conditions: 2 mg/kg/day intraperitoneally to recipients
# T1 construct: expressed in transfected cells; host or cells: LEW rat heart allografts transduced with rAAV/HO-1, in F344 rat recipients (in vivo)
# T1 sequence (P06762 1-289): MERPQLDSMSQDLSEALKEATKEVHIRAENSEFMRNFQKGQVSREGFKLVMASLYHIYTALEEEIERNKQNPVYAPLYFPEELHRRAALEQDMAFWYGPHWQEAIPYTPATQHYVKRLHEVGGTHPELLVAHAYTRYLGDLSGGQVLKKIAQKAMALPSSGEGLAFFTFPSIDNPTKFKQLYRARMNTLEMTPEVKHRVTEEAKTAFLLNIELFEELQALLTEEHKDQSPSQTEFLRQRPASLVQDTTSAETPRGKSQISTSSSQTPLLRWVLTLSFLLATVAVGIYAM
# Description: Heme oxygenase-1 inhibitor, zinc protoprophyrin IX (ZnPPIX, Calbiochem-Novabiochem, Germany) was administered intraperitoneally according to the experimental protocols.
# The HO enzyme activity was measured by two of its end products: carbon monoxide and biliverdin/bilirubin. The amount of carbon monoxide was measured by spectrophotometry providing a determination of carboxyhemoglobin in the peripheral blood of the animals. The level of intragraft bilirubin was measured by the method as described. In brief, the frozen samples of grafts were homogenized in ice-cold sucrose and Tri-HCl buffer. The microsomal pellet was obtained after centrifugation, and re-suspended in MgCl2-potassium phosphate buffer. Sample protein was then incubated with the reaction mixture containing rat liver cytosol, hemin, glucose-6-phosphate, glucose-6-phosphate dehydrogenase and NADPH (Sigma-Aldrich, St. Louis) for 60 minutes at 37° C. The generated bilirubin was measured by reacting with diazotized surfanilic acid to yield azobilirubin using spectrophotometry. The level of intragraft bilirubin was deduced by the ratio of its contents in the sample/naive heart. […]
# [1] = tested on: LEW heart grafts to F344 recipients; test: Allogeneic heart transplant graft survival; assay type: in vivo, rat
# Description: LEW (RT1′) and F344 (RT1^lvl) rats were purchased from the Institute of Laboratory Animals, Medical School Hannover, Germany, and maintained in the Laboratory Animal Unit, The University of Hong Kong. All experimental procedures were performed according to institutional guidelines and approved by the Committee on the Use of Live Animal in Teaching and Research. Allogeneic heart transplants were performed using LEW and F344 rats weighing from 200-250 grams as donors or recipients respectively. For the syngeneic graft, LEW rats were used as recipients. In brief, after in situ perfusion of donor heart grafts with the HTK solution (Koehler Chemie, Germany), 1×10^12 vector genomes of rAAV/GFP or rAAV/HO-1 were administered into the heart graft via the coronary artery. Grafts were then preserved in cold HTK solution for 6 hours before the transplant. The implantation procedure was as described in the literature. Graft function was monitored by daily palpation, and the allograft rejection was defined by full cessation of ventricular contraction, and confirmed by pathological examination.
# Heme oxygenase-1 inhibitor, zinc protoprophyrin IX (ZnPPIX, Calbiochem-Novabiochem, Germany) was administered intraperitoneally according to the experimental protocols. […]
structure (smiles),measurement,setting,value
"C=CC1=C(C)c2cc3[n-]c(cc4[n-]c(cc5nc(cc1n2)C(C)=C5C=C)c(C)c4CCC(=O)O)c(CCC(=O)O)c3C.[Zn+2] [ZnPPIX, zinc protoporphyrin IX]","HO activity, level of carboxyhemoglobin",HO,significantly inhibited
same,graft survival rate in rAAV/HO-1+CsA group,[1]; ZnPPIX administered from day 31 to 100,remained unchanged
same,graft survival in rAAV/HO-1+CsA group,[1]; combined administration of ZnPPIX from day 0 to 30,shortened
